# Reference: patent publication US20190209506A1, “METHODS OF REDUCING OR PREVENTING OXIDATION OF LDL OR LIPID MEMBRANES IN A SUBJECT IN NEED THEREOF” (Amarin Pharmaceuticals Ireland Limited, priority 2018, published 2019)
# Several values for one entry are separate records, joined by “and”; a condition that tells them apart may be missing. Equal entries are not always repeated.
# Legend:
# [1] = Lipid hydroperoxide (LOOH) formation in cholesterol-enriched model membranes under autoxidation (Example 3); assay type: biochemical; conditions: EPA:lipids 1:30; C/P 0.6:1; autoxidation 37° C., 72 hours
# Experimental: Levels of lipid hydroperoxides were also measured in cholesterol-enriched membrane prepared in the absence of EPA as a control. […] CHOD-iodide color reagent (stock) was prepared according to a procedure modified from El-Saadani et […], Goher […], Jurgens G. A spectrophotometric assay for lipid peroxides in serum lipoproteins using commercially available reagent. (J. Lipid. […] Membrane samples consisting of DLPC±cholesterol were prepared as follows. Component lipids (in chloroform) were transferred to 13×100 mm test tubes and shell-dried under a steady stream of nitrogen gas while vortex mixing. The lipid was co-dried with EPA. Residual solvent was removed by drying for a minimum of 3 h under vacuum. After desiccation, each membrane sample was resuspended in diffraction buffer (0.5 mM HEPES, 154 mM NaCl, pH 7.3) to yield a final phospholipid concentration of 1.0 mg/mL. Multilamellar vesicles (MLV) were formed by vortex mixing for 3 minutes at ambient temperature. […] Absorbances were measured against a CHOD blank at 365 nm using a Beckman DU-640 spectrophotometer. The CHOD colorimetric assay is based on the oxidation of iodide (I^-) by lipid hydroperoxides (LOOH) and proceeds according to the following reaction scheme: The quantity of triiodide anion (I3^-) liberated in this reaction is directly proportional to the amount of lipid hydroperoxides present in the membrane sample.
# [2] = tested on: human LDL; test: Copper-induced LDL oxidation, dose and time dependence, MDA (Example 17); assay type: biochemical
# Experimental: LDL was isolated from human plasma by isopycnic centrifugation, separated into test samples of 100 μg/mL, and incubated at 37° C. for 30 min in the absence (vehicle) or presence of EPA over a range of concentrations of 1 to 10 μM. The samples were subsequently subjected to copper-induced oxidation. Following the copper-induced oxidation, LDL oxidation was measured over the course of six hours. Tables 8 and 9 enumerate the changes in MDA concentration expressed as molar equivalents for each of the vehicle and EPA test samples as a function of time (i.e., at 0 hours, 1 hour, 2 hours, 2.5 hours, and 3 hours).
structure (smiles),measurement,setting,value
"CC/C=C\C/C=C\C/C=C\C/C=C\C/C=C\CCCC(=O)O [EPA, cis-5,8,11,14,17-eicosapentaenoic acid]",LOOH levels,[1],728 ± 30 µM
same,reduction of LOOH levels compared to untreated controls,[1],greater than 90%
same,MDA Equivalent,"[2]; EPA 1.0 μM, 0 Hour",0.24 µM and 0.26 µM
same,MDA Equivalent,"[2]; EPA 1.0 μM, 1 Hour",3.85 µM and 3.14 µM and 2.87 µM
same,MDA Equivalent,"[2]; EPA 1.0 μM, 2 Hour",10.33 µM and 10.92 µM and 10.63 µM
same,MDA Equivalent,"[2]; EPA 1.0 μM, 2.5 Hour",10.60 µM and 10.92 µM and 10.65 µM
same,MDA Equivalent,"[2]; EPA 1.0 μM, 3 Hour",9.44 µM and 9.95 µM and 9.93 µM
same,MDA Equivalent,"[2]; EPA 1.0 μM, 3.5 Hour",10.13 µM and 10.87 µM
same,MDA Equivalent,"[2]; EPA 1.0 μM, 4 Hour",8.93 µM and 9.39 µM
same,MDA Equivalent,"[2]; EPA 1.0 μM, 6 Hour",9.79 µM and 10.10 µM
same,MDA Equivalent,"[2]; EPA 2.0 μM, 0 Hour",0.25 µM and 0.26 µM and 0.19 µM
same,MDA Equivalent,"[2]; EPA 2.0 μM, 1 Hour",1.15 µM and 1.04 µM
same,MDA Equivalent,"[2]; EPA 2.0 μM, 2 Hour",7.34 µM and 7.35 µM and 7.67 µM
same,MDA Equivalent,"[2]; EPA 2.0 μM, 2.5 Hour",9.45 µM and 9.62 µM and 9.60 µM
same,MDA Equivalent,"[2]; EPA 3.0 μM, 0 Hour",0.21 µM and 0.22 µM
same,MDA Equivalent,"[2]; EPA 3.0 μM, 1 Hour",0.56 µM and 0.57 µM and 0.53 µM
same,MDA Equivalent,"[2]; EPA 3.0 μM, 2 Hour",1.72 µM and 1.78 µM and 1.74 µM
same,MDA Equivalent,"[2]; EPA 3.0 μM, 2.5 Hour",3.09 µM and 3.01 µM and 2.91 µM
same,MDA Equivalent,"[2]; EPA 3.5 μM, 0 Hour",0.17 µM and 0.26 µM and 0.29 µM
same,MDA Equivalent,"[2]; EPA 3.5 μM, 2 Hour",1.04 µM and 1.05 µM and 0.90 µM
same,MDA Equivalent,"[2]; EPA 3.5 μM, 2.5 Hour",1.16 µM and 1.43 µM and 0.95 µM
same,MDA Equivalent,"[2]; EPA 4.0 μM, 0 Hour",0.19 µM and 0.21 µM and 0.22 µM
same,MDA Equivalent,"[2]; EPA 4.0 μM, 1 Hour",0.37 µM and 0.41 µM and 0.40 µM
same,MDA Equivalent,"[2]; EPA 4.0 μM, 2 Hour",1.00 µM and 0.78 µM and 0.71 µM
same,MDA Equivalent,"[2]; EPA 4.0 μM, 2.5 Hour",1.26 µM and 0.94 µM and 0.80 µM
same,MDA Equivalent,"[2]; EPA 4.5 μM, 0 Hour",0.28 µM and 0.17 µM and 0.18 µM
same,MDA Equivalent,"[2]; EPA 4.5 μM, 1 Hour",0.28 µM and 0.30 µM and 0.21 µM
same,MDA Equivalent,"[2]; EPA 4.5 μM, 2 Hour",0.38 µM and 0.50 µM and 0.44 µM
same,MDA Equivalent,"[2]; EPA 4.5 μM, 2.5 Hour",0.36 µM and 0.19 µM and 0.31 µM
same,MDA Equivalent,"[2]; EPA 5.0 μM, 0 Hour",0.19 µM and 0.26 µM and 0.27 µM
same,MDA Equivalent,"[2]; EPA 5.0 μM, 2 Hour",0.35 µM and 0.33 µM and 0.30 µM
same,MDA Equivalent,"[2]; EPA 5.0 μM, 2.5 Hour",0.22 µM and 0.24 µM and 0.21 µM
same,MDA Equivalent,"[2]; EPA 10.0 μM, 0 Hour",0.21 µM and 0.24 µM and 0.29 µM
same,MDA Equivalent,"[2]; EPA 10.0 μM, 1 Hour",0.12 µM and 0.06 µM
same,MDA Equivalent,"[2]; EPA 10.0 μM, 2 Hour",0.27 µM and 0.29 µM and 0.23 µM
same,MDA Equivalent,"[2]; EPA 10.0 μM, 2.5 Hour",0.01 µM and 0.02 µM
same,inhibition of LDL oxidation,"[2]; above 7.0 μM, through 6 hours",> 88%
same,IC50,"[2]; at 6 hours, read-out: half-maximum concentration of inhibition of LDL oxidation",5 µM
same,time up to which oxidation was inhibited,[2]; concentrations ≤3 μM,up to 4 hours
